Series [1] has as its target T1, PDE10A (human) (Homo sapiens, UniProt Q9Y233).
T1 construct: purchased BPS Bioscience
Kind of series: Measurement of PDE activity (HTRF cAMP kit), human PDE10A. The conditions noted are these: PDE enzymatic reaction, substrate 20 nM for PDE10, 60 minutes at 29 C. The format is biochemical. The method in brief:
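Recombinant human PDE10A (10–250 pM range across PDEs) with 20 nM cAMP substrate in 20 mM Tris-HCl pH 7.5, 10 mM MgCl2, 0.1% BSA, compound pre-mixed with enzyme. Ran 60 min at 29 °C. Remaining cAMP read by HTRF, converted to % of uninhibited activity, and IC50 fitted.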
In general terms: In TR-FRET formats the signal depends on donor and acceptor labels being close together.

Series [2] can be described thus: Determination of the microsomal half-life, rat liver microsomes. The conditions noted are these: rat, liver microsomes, pH 7.4. A general note: Liver microsomes are a subcellular fraction often used to study metabolism.
Series [3] is described as follows: Determination of the microsomal half-life, human liver microsomes. The conditions noted are these: human, liver microsomes, pH 7.4.

Structures are written as SMILES. pIC50: −log10 of the molar value. Structures can show the parent of a compound that is named as a salt.

Results on 27 compounds are retold here after patent US9938269B2, “Inhibitor compounds of phosphodiesterase type 10A” (ABBVIE INC., priority 2011, dated 2018).

One may read the pIC50 as the negative decadic logarithm of the IC50, by convention in mol/L. What is called microsomal CLint is the rate of metabolic loss divided by the concentration.

T1 sequence (Q9Y233 whole entry): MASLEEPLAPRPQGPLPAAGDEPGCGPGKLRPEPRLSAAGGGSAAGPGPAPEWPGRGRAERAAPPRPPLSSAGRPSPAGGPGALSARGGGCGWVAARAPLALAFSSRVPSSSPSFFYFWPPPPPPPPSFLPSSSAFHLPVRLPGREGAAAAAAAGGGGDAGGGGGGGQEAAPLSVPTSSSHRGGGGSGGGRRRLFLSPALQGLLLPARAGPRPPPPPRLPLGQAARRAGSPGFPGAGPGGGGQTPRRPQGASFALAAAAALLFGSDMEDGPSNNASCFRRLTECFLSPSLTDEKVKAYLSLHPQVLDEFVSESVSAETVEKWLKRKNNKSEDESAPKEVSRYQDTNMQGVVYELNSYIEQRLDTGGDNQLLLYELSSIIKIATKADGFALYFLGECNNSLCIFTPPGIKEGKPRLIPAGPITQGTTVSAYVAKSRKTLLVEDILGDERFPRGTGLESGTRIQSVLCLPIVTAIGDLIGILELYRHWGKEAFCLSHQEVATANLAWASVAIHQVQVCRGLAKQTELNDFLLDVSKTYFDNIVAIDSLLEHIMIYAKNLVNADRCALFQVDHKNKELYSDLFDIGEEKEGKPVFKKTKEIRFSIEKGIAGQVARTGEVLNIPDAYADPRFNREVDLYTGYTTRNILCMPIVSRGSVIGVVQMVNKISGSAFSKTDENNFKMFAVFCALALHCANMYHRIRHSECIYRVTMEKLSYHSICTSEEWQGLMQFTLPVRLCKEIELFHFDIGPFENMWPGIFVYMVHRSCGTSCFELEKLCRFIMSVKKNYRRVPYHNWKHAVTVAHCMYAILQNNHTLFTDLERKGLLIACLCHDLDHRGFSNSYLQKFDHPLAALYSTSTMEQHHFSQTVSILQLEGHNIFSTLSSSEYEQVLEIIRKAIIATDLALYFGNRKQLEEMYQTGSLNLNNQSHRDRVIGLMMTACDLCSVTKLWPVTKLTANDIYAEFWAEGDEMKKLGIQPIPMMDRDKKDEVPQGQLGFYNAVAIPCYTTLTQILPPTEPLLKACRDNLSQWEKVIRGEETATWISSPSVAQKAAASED

In series [1], `O=C1c2c(N3CCOCC3)ccnc2CN1CCc1nc2ccccc2s1` [Example 377, 6-(2-Benzothiazol-2-yl-ethyl)-4-morpholin-4-yl-6,7-dihydro-pyrrolo[3,4-b]pyridin-5-one] showed a pIC50 above 7.00. In addition, the microsomal CLint at 0.5 μM in series [2] and in series [3] was below 100 µL/min/mg each time.

Take `COc1ccc(-c2ccncc2)c2c1CN(CCc1cn3ccccc3n1)C2=O` [Example 374, 2-(2-Imidazo[1,2-a]pyridin-2-yl-ethyl)-4-methoxy-7-pyridin-4-yl-2,3-dihydro-isoindol-1-one]: the negative logarithm of the IC50 (pIC50) in series [1] is above 7.00. Moreover, the microsomal CLint at 0.5 μM in series [2] and in series [3] was below 100 µL/min/mg each time.

`Cc1ccc(CCN2Cc3nccc(N4CCOCC4)c3C2=O)nc1C` [compound 554, 6-[2-(5,6-Dimethyl-2-pyridyl)ethyl]-4-morpholino-7H-pyrrolo[3,4-b]pyridin-5-one]: the pIC50 in series [1] was above 7.00. In addition, the microsomal CLint at 0.5 μM in series [2] and in series [3] was 100 to 220 µL/min/mg each time.

`O=C1c2c(cccc2NC2CNC2)CN1CCc1ccc2ccccc2n1` [Example 145, 7-(Azetidin-3-ylamino)-2-(2-quinolin-2-yl-ethyl)-2,3-dihydro-isoindol-1-one] showed a negative logarithm of the IC50 (pIC50) in series [1] of 6.30 to 6.70. The microsomal CLint at 0.5 μM in series [2] and in series [3] was below 100 µL/min/mg in each case.

Regarding `Cn1c(CCN2Cc3nccc(-c4ccncc4)c3C2=O)nc2ccccc21` [Example 367, 6-[2-(1-Methyl-1H-benzoimidazol-2-yl)-ethyl]-4-pyridin-4-yl-6,7-dihydro-pyrrolo[3,4-b]pyridin-5-one], the pIC50 in series [1] is above 7.00. The microsomal CLint at 0.5 μM in series [2] and in series [3] was below 100 µL/min/mg throughout.

Regarding `Cc1ccc(CCN2Cc3nccc(-c4ccncc4)c3C2=O)nc1C` [compound 474, 6-[2-(5,6-Dimethyl-2-pyridyl)ethyl]-4-(4-pyridyl)-7H-pyrrolo[3,4-b]pyridin-5-one trifluoroacetate], the pIC50 in series [1] is 6.70 to 7.00. Besides, the intrinsic metabolic clearance (microsomal CLint) at 0.5 μM in series [2] and in series [3] was 100 to 220 µL/min/mg in each case.

Regarding `Cn1c(CCN2Cc3nccc(-c4cncnc4)c3C2=O)nc2ccccc21` [Example 364, 6-[2-(1-Methyl-1H-benzoimidazol-2-yl)-ethyl]-4-pyrimidin-5-yl-6,7-dihydro-pyrrolo[3,4-b]pyridin-5-one], the pIC50 in series [1] is above 7.00. Besides, the microsomal CLint at 0.5 μM in series [2] and in series [3] was below 100 µL/min/mg each time.

In series [1], `CNCc1ccc(-c2cccc3c2C(=O)N(CCc2ccc4ccccc4n2)C3)cc1` [Example 194, 7-(4-Methylaminomethyl-phenyl)-2-(2-quinolin-2-yl-ethyl)-2,3-dihydro-isoindol-1-one] gave a pIC50 of 6.30 to 6.70. Further, the microsomal CLint at 0.5 μM in series [2] and in series [3] was 100 to 220 µL/min/mg in each case.

Regarding `Cc1ccc2c(c1)nc(CCN1Cc3cccc(N4CCOCC4)c3C1=O)n2C` [Example 306, 2-[2-(1,5-Dimethyl-1H-benzoimidazol-2-yl)-ethyl]-7-morpholin-4-yl-2,3-dihydro-isoindol-1-one trifluoroacetate], in series [1], the pIC50 was above 7.00. Also, the microsomal CLint at 0.5 μM was below 100 µL/min/mg in series [2] and 100 to 220 µL/min/mg in series [3].

As for `O=C1c2cccc(N3CCS(=O)(=O)CC3)c2CN1CCc1ccc2ccccc2n1` [Example 131, 4-(1,1-Dioxo-1-thiomorpholin-4-yl)-2-(2-quinolin-2-yl-ethyl)-2,3-dihydro-isoindol-1-one], the pIC50 in series [1] is 6.30 to 6.70. In addition, the microsomal CLint at 0.5 μM in series [2] and in series [3] was below 100 µL/min/mg each time.

`Cn1c(CCN2Cc3cccc(N4CCOCC4)c3C2=O)nc2ccccc21` [Example 153, 2-[2-(1-Methyl-1H-benzoimidazol-2-yl)-ethyl]-7-morpholin-4-yl-2,3-dihydro-isoindol-1-one] gave a pIC50 in series [1] above 7.00. Further, the microsomal CLint at 0.5 μM in series [2] and in series [3] was below 100 µL/min/mg throughout.

Turning to `Cc1ccc2c(c1)nc(CCN1Cc3nccc(-c4cccnc4)c3C1=O)n2C` [compound 539, 6-[2-(1,5-Dimethylbenzimidazol-2-yl)ethyl]-4-(3-pyridyl)-7H-pyrrolo[3,4-b]pyridin-5-one], the pIC50 in series [1] is above 7.00. Also, the microsomal CLint at 0.5 μM in series [2] and in series [3] was below 100 µL/min/mg each time.

Consider `COc1ccc(-c2ccncc2)c2c1C(=O)N(CCc1cn3ccccc3n1)C2` [compound 448, 2-(2-Imidazo[1,2-a]pyridin-2-yl-ethyl)-7-methoxy-4-pyridin-4-yl-2,3-dihydro-isoindol-1-one trifluoroacetate], for which the pIC50 in series [1] is above 7.00. In addition, the microsomal CLint at 0.5 μM in series [2] and in series [3] was below 100 µL/min/mg in each case.

As for `O=C1c2c(N3CCOCC3)ccnc2CN1CCc1ccc2ccccc2n1` [Example 119, 4-Morpholin-4-yl-6-(2-quinolin-2-yl-ethyl)-6,7-dihydro-pyrrolo[3,4-b]pyridin-5-one], the pIC50 in series [1] was above 7.00. Further, the microsomal CLint at 0.5 μM in series [2] and in series [3] was below 100 µL/min/mg each time.

As for `O=C1c2c(cccc2-c2ccncc2)CN1CCc1cn2ccccc2n1` [Example 20, 2-(2-Imidazo[1,2-a]pyridin-2-yl-ethyl)-7-pyridin-4-yl-2,3-dihydro-isoindol-1-one], the pIC50 in series [1] was above 7.00. Besides, the microsomal CLint at 0.5 μM in series [2] and in series [3] was below 100 µL/min/mg each time.

`Cn1cnc2ccc(-c3cccc4c3C(=O)N(CCc3ccc5ccccc5n3)C4)cc21` [Example 8, 7-(3-Methyl-3H-benzoimidazol-5-yl)-2-(2-quinolin-2-yl-ethyl)-2,3-dihydro-isoindol-1-one trifluoroacetate] had a pIC50 in series [1] of 6.30 to 6.70. In addition, the microsomal CLint at 0.5 μM in series [2] was 100 to 220 µL/min/mg; in series [3], above 220 µL/min/mg.

`O=C1c2c(-c3ccncc3)ccc(F)c2CN1CCc1cn2ccccc2n1` [Example 280, 4-Fluoro-2-(2-imidazo[1,2-a]pyridin-2-yl-ethyl)-7-pyridin-4-yl-2,3-dihydro-isoindol-1-one] gave a pIC50 in series [1] above 7.00. In addition, the microsomal CLint at 0.5 μM in series [2] and in series [3] was 100 to 220 µL/min/mg throughout.

For the compound `COc1ccc(-c2ccnc3c2C(=O)N(CCc2nc4ccccc4s2)C3)cc1` [compound 541, 6-[2-(1,3-Benzothiazol-2-yl)ethyl]-4-(4-methoxyphenyl)-7H-pyrrolo[3,4-b]pyridin-5-one trifluoroacetate], the pIC50 in series [1] was 6.70 to 7.00. Moreover, the values for the microsomal CLint at 0.5 μM in series [2] and in series [3] were 100 to 220 µL/min/mg and below 100 µL/min/mg, respectively.

In the case of `O=C1c2c(cccc2OCc2ccncc2)CN1CCc1ccc2ccccc2n1` [Example 128, 7-(Pyridin-4-ylmethoxy)-2-(2-quinolin-2-yl-ethyl)-2,3-dihydro-isoindol-1-one], the microsomal CLint at 0.5 μM in series [2] is 100 to 220 µL/min/mg; in series [3], above 220 µL/min/mg.

For `O=C1c2c(cccc2N2CCOCC2)CN1CCc1nc2ccccn2n1` [Example 231, 7-Morpholin-4-yl-2-(2-[1,2,4]triazolo[1,5-a]pyridin-2-yl-ethyl)-2,3-dihydro-isoindol-1-one], the intrinsic clearance (microsomal CLint) at 0.5 μM in series [2] and in series [3] was below 100 µL/min/mg throughout.

With `CC1CN(c2cccc3c2C(=O)N(CCc2ccc4ccccc4n2)C3)CCO1` (stereo not drawn) [Example 228, 7-(2-Methyl-morpholin-4-yl)-2-(2-quinolin-2-yl-ethyl)-2,3-dihydro-isoindol-1-one trifluoroacetate], the figures for the microsomal CLint at 0.5 μM in series [2] and in series [3] were 100 to 220 µL/min/mg and above 220 µL/min/mg, respectively.

As for `O=C1c2c(cccc2N2CC[C@@H]3NCC[C@@H]3C2)CN1CCc1ccc2ccccc2n1` [Example 220, 7-(3aR,7aS)-Octahydro-pyrrolo[3,2-c]pyridin-5-yl-2-(2-quinolin-2-yl-ethyl)-2,3-dihydro-isoindol-1-one trifluoroacetate], the microsomal CLint at 0.5 μM is above 220 µL/min/mg in series [2] and 100 to 220 µL/min/mg in series [3].

For `CN1CCN(c2cccc3c2C(=O)N(CCc2nc4ccccn4n2)C3)CC1` [Example 233, 7-(4-Methyl-piperazin-1-yl)-2-(2-[1,2,4]triazolo[1,5-a]pyridin-2-yl-ethyl)-2,3-dihydro-isoindol-1-one], the microsomal CLint at 0.5 μM in series [2] and in series [3] was below 100 µL/min/mg each time.

Take `O=C1c2cccc(-c3ccncc3)c2C(=O)N1CCc1ccc2ccccc2n1` [Example 249, 4-Pyridin-4-yl-2-(2-quinolin-2-yl-ethyl)-isoindole-1,3-dione dihydrochloride]: the microsomal CLint at 0.5 μM in series [2] was above 220 µL/min/mg; in series [3] it was 100 to 220 µL/min/mg.

Consider `COc1ccc(NC2COC2)c2c1CN(CCc1cn3ccccc3n1)C2=O` [Example 362, 2-(2-Imidazo[1,2-a]pyridin-2-yl-ethyl)-4-methoxy-7-(oxetan-3-ylamino)-2,3-dihydro-isoindol-1-one], for which the microsomal CLint at 0.5 μM in series [2] and in series [3] was below 100 µL/min/mg in each case.

Take `O=C1c2c(cccc2N2CC3CNCC3C2)CN1CCc1ccc2ccccc2n1` (stereo not drawn) [Example 192, 7-(Hexahydro-pyrrolo[3,4-c]pyrrol-2-yl)-2-(2-quinolin-2-yl-ethyl)-2,3-dihydro-isoindol-1-one]: the microsomal CLint at 0.5 μM is above 220 µL/min/mg in series [2] and below 100 µL/min/mg in series [3].

In the case of `COc1ccc(-c2cccc3c2C(=O)N(CCc2cn4ccccc4n2)C3)cc1` [Example 237, 2-(2-Imidazo[1,2-a]pyridin-2-yl-ethyl)-7-(4-methoxy-phenyl)-2,3-dihydro-isoindol-1-one], the microsomal CLint at 0.5 μM in series [2] and in series [3] was 100 to 220 µL/min/mg each time.
